Data taken from patent publication US11446301B2, “Quinoline analogs as phosphatidylinositol 3-kinase inhibitors” (NANJING ZHENGXIANG PHARMACEUTICALS CO., LTD., priority 2016, dated 2022).
Like-named read-outs stand apart in the source and are kept apart here. Blank lines part the entries; values can stand above or below the compound they belong to.

Tests used:
[1] = PK profiles after iv and PO dosing in rats; type: in vivo; details: oral dose 10 mg/kg, SD rats, vs idelalisib
Description: Compound 2 was dosed by both iv and PO in the rats.

human hepatocytes = assay: Hepatocyte stability (parent disappearance in cryopreserved hepatocytes); type: in vitro ADME
Description: The hepatocyte assay was used to evaluate the metabolic stability of test articles (TA) following incubation in cryopreserved hepatocytes by monitoring parent drug disappearance via […]. The TA with 1% final DMSO concentration was incubated with 0.5 million hepatocytes/ml at 1 μM substrate in duplicate. The incubation was carried out at 37° C. with 5% CO2 and saturating humidity. Samples were taken at 0, 1, 2, and 3 hours to monitor the disappearance of TA and a half-life (t ½) was determined. Table 2 below summarizes the t½ values (e.g. t ½) collected from this Example.

[2] = IV; data from idelalisib NDA filing; cited from earlier work
[3] = cited from earlier work

Oral exposure corrected with dose (AUCinf/dose) higher than that of idelalisib [1]: 20 fold
SMILES: C[C@H](Nc1nc(N)nc(N)c1C#N)c1cc2ccc(F)cc2nc1-c1ccccn1 (stereo in doubt) [Compound 2, (S)-2,4-Diamino-6-[1-(7-fluoro-2-pyridin-2-yl-quinolin-3-yl)-ethyla-mino]-pyrimidine-5-carbonitrile]

improved stability in human hepatocytes (longer half-life) than compound E (human hepatocytes; fold vs compound E): 1.3 ×
SMILES: C[C@H](Nc1nc(N)nc(N)c1C#N)c1cc2ccc(F)cc2nc1-c1ccccc1S(C)(=O)=O (stereo in doubt) [Compound 4, (S)-2,4-Diamino-6-{1-[7-fluoro-2-(2-methanesulfonyl-phenyl)-quinoli-n-3-yl]-ethylamino}-pyrimidine-5-carbonitrile]

improved stability in human hepatocytes (longer half-life) than compound D (human hepatocytes; fold vs compound D): 2.7 ×
SMILES: C[C@H](Nc1nc(N)nc(N)c1C#N)c1cc2ccc(F)cc2nc1-c1ccccc1 [Compound 1, (S)-2,4-diamino-6-[1-(7-fluoro-2-phenyl-quinolin-3-yl)-ethylamino]-pyrimidine-5-carbonitrile]

SMILES: CC[C@H](Nc1ncnc2[nH]cnc12)c1nc2cccc(F)c2c(=O)n1-c1ccccc1 [Idelalisib, idelalisib]
Tmax [2]: 3.6 min
Fatal and/or serious hepatotoxicity, patients ([3]; idelalisib in combination trials): 11%
Fatal and/or serious hepatotoxicity, patients ([3]; idelalisib monotherapy): 18%
